Assay type in all cases: cell-based
The nature of data set [1]: Cytotoxicity in PHH natural infection assay (Cell Counting Kit-8). The conditions noted are these: HBV-infected primary human hepatocytes, CCK8. For orientation: Formazan colour is commonly taken as a measure of viable cells.
Data set [2] relates to HBeAg. Kind of data set: PHH HBV natural infection assay, HBeAg (alphalisa). The conditions noted are these: Hepatitis B virus, Hepatocyte, 72 h, read-out: HbeAg IC50. An outline of the steps: (§1)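 Primary human hepatocytes infected with HBV at 200 GE/cell with 4% PEG8000 for 24 h, then sandwich-cultured 72 h with 1% DMSO. Compounds applied twice at 72-hour interval; supernatant HBsAg and HBeAg measured by AlphaLISA.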

For data set [3], the system named is HBsAg. Kind of data set: PHH HBV natural infection assay, HBsAg (alphalisa). The settings on record: Hepatitis B virus, Hepatocyte, 72 h, read-out: HBsAg IC50. An outline of the steps:
as §1
(In general: In Alpha technology, singlet oxygen from a donor bead excites a nearby acceptor bead.)

By CC50 is commonly meant the concentration that lowers cell viability or growth by half. Low readings indicate harm at low concentration, high ones better tolerance by the cells. What is called IC50 is the concentration that gives 50% inhibition. `N=S(=O)(c1ccc(C(=O)NC23CC(c4nc5cc(Cl)ccc5o4)(C2)C3)o1)C1CC1` (stereo not drawn) [Example 11, N-[3-(5-chloro-1,3-benzoxazol-2-yl)-1-bicyclo[1.1.1]pentanyl]-5-(cyclopropylsulfonimidoyl)furan-2-carboxamide]: the CC50 at 144 h in data set [1] was more than 100 µM. For the same molecule, the IC50 in data set [2] came to 0.594 µM; in data set [3], 0.823 µM.

For the molecule `NS(=O)(=O)c1ccc(C(=O)NC23CC(c4nc5cc(Cl)ccc5o4)(C2)C3)o1` [Example 10, N-[3-(5-chloro-1,3-benzoxazol-2-yl)-1-bicyclo[1.1.1]pentanyl]-5-sulfamoyl-furan-2-carboxamide], the CC50 at 144 h in data set [1] was more than 100 µM. In addition, the IC50 was found to be 2.67 µM in data set [2] and 4.44 µM in data set [3].

As for `O=C(NC12CC(c3nc4cc(Cl)ccc4o3)(C1)C2)c1ccc(C(F)(F)F)nc1` [Example 25, N-[3-(5-chloro-1,3-benzoxazol-2-yl)-1-bicyclo[1.1.1]pentanyl]-6-(trifluoromethyl)pyridine-3-carboxamide], the CC50 at 144 h in data set [1] was more than 100 µM. Moreover, the values for the IC50 in data set [2] and in data set [3] were 4.36 µM and 8.71 µM, respectively.

Take `O=C(NC12CC(c3nc4cc(Cl)ccc4o3)(C1)C2)c1ccc(S(=O)(=O)C2CC2)o1` [Example 5, N-[3-(5-chloro-1,3-benzoxazol-2-yl)-1-bicyclo[1.1.1]pentanyl]-5-cyclopropylsulfonyl-furan-2-carboxamide]: the cytotoxic concentration (CC50) at 144 h in data set [1] is more than 100 µM. The IC50 in data set [2] is 0.75 µM; in data set [3], 0.688 µM.

Values taken from patent US20230286929A1, “AROMATIC BRIDGED RING AMIDE DERIVATIVES FOR THE TREATMENT AND PROPHYLAXIS OF HEPATITIS B VIRUS INFECTION” (Hoffmann-La Roche Inc., priority 2020, published 2023).
